Here are results for 11 molecules from ChEMBL document CHEMBL1201862, “PubChem BioAssay data set” (2004).

Molecules are shown by their SMILES.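 Method: 48-hour compound exposure of cells in 96-well plates, five concentrations, linear interpolation of endpoints. The concentration for 50% growth inhibition is given as GI50.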 The source made the active and inactive calls. No stated cut-off is given here; in the data, active = GI50 up to about 1.1 µM and inactive = higher.

Test systems include PC-3; NCI-H522; EKVX; Malme-3M; UACC-62; BT-549; HCT-15; ACHN; SR; HOP-62; MCF7; SW-620; SK-MEL-5; MDA-MB-435; MOLT-4; T47D; SNB-19; CCRF-CEM; SN12C.
Assay in all cases: growth of human tumour cells (NCI), 48 h

For `CCC(O)c1ccc(/N=C/c2ccccc2O)cc1` (stereo not given), the GI50 in the assay with PC-3, in the assay on NCI-H522, with EKVX, in the assay on Malme-3M, in the assay with UACC-62 and in the assay with BT-549 was > 100 µM (inactive) throughout. Also, the GI50 in the assay on HCT-15 is over 100 µM; with ACHN, > 100 µM (inactive); in the assay with SR, 90.2 µM (inactive); in the assay on HOP-62, > 100 µM (inactive); with MCF7 it was > 100 µM (inactive); in the assay with SW-620, > 100 µM (inactive). Also, the GI50 in the assay with SK-MEL-5 was > 100 µM (inactive); in the assay with MDA-MB-435, > 100 µM (inactive); in the assay on MOLT-4, > 100 µM (inactive); in the assay on T47D it was 8.97 µM (inactive); in the assay on SNB-19, > 100 µM (inactive).
For the molecule `CCN(CC)CCN(/C(=N/c1ccccc1)N1CCCCC1)c1ccccc1`, the GI50 is 2.72 µM (inactive) with PC-3; 2.62 µM (inactive) in the assay with NCI-H522; 14.1 µM (inactive) with EKVX; 15.5 µM (inactive) in the assay on Malme-3M; 6.12 µM (inactive) with UACC-62; 13.7 µM (inactive) in the assay on BT-549. Also, the GI50 is 4.49 µM (inactive) with CCRF-CEM; 7 µM (inactive) in the assay with SN12C; 17.2 µM in the assay with HCT-15; 3.4 µM (inactive) with SR; 8.18 µM (inactive) in the assay on HOP-62; 5.53 µM (inactive) in the assay with MCF7. The GI50 in the assay on SW-620 was 6.05 µM (inactive); in the assay on SK-MEL-5, 5.08 µM (inactive); in the assay with MDA-MB-435, 3.91 µM (inactive); with MOLT-4 it was 2.99 µM (inactive); in the assay on T47D, 2.31 µM (inactive); in the assay with SNB-19 it was 17.8 µM (inactive).
Turning to `NC(CC(=O)Nc1cc(C(F)(F)F)ccc1Cl)=NO`, the GI50 in the assay with PC-3, in the assay on NCI-H522, in the assay with EKVX, in the assay with Malme-3M, in the assay with UACC-62 and in the assay on BT-549 was > 100 µM (inactive) in each case. Further, the GI50 with SN12C was > 100 µM (inactive); in the assay with HCT-15, over 100 µM; with ACHN, > 100 µM (inactive); in the assay on SR, > 100 µM (inactive); with HOP-62, > 100 µM (inactive); in the assay on MCF7, > 100 µM (inactive). For the same molecule, the GI50 in the assay on SW-620, in the assay with SK-MEL-5, in the assay with MDA-MB-435, with MOLT-4, in the assay on T47D and with SNB-19 was > 100 µM (inactive) each time.
For `Clc1cc(OCc2nn3c(Cc4ccccc4)nnc3s2)ccc1OCc1nn2c(Cc3ccccc3)nnc2s1`, the GI50 in the assay with PC-3 was 48.4 µM (inactive); with NCI-H522 it was 50.1 µM (inactive); in the assay with EKVX it was 17.1 µM (inactive); in the assay on Malme-3M it was 37.5 µM (inactive); in the assay on UACC-62, 40.6 µM (inactive); in the assay with BT-549 it was 25.8 µM (inactive). In addition, the GI50 in the assay on SN12C is 45.3 µM (inactive); with HCT-15, 47.8 µM; with ACHN it was 24.2 µM (inactive); in the assay with SR, 35 µM (inactive); with HOP-62 it was 31.8 µM (inactive); in the assay with MCF7, 50.4 µM (inactive). In addition, the GI50 is 79.8 µM (inactive) with SW-620; 25.4 µM (inactive) in the assay with SK-MEL-5; 51.6 µM (inactive) with MDA-MB-435; 34.4 µM (inactive) with MOLT-4; 20.9 µM (inactive) in the assay with T47D; 24.6 µM (inactive) with SNB-19.
Consider `C(=N\Nc1nnc(-c2nnc(N/N=C/c3ccccc3)o2)o1)/c1ccccc1`, for which the GI50 in the assay with PC-3, in the assay on EKVX, with Malme-3M, in the assay with UACC-62, with BT-549 and with CCRF-CEM was > 10 µM (inactive) each time. The GI50 in the assay on SN12C was > 10 µM (inactive); in the assay with HCT-15, over 10 µM; with ACHN it was > 10 µM (inactive); in the assay with SR, > 10 µM (inactive); with HOP-62 it was > 10 µM (inactive); in the assay on MCF7 it was > 10 µM (inactive). The GI50 with SW-620, in the assay on SK-MEL-5, with MDA-MB-435, in the assay on MOLT-4, in the assay with T47D and in the assay with SNB-19 was > 10 µM (inactive) each time.
`CCCCCCCCCCCCCCCCOP(=O)([O-])OCC[N+](C)(C)C1CC(C)(C)N(O)C(C)(C)C1`: the GI50 in the assay with PC-3, in the assay with NCI-H522, in the assay on EKVX, in the assay with Malme-3M, with UACC-62 and in the assay with BT-549 was > 100 µM (inactive) throughout. In addition, the GI50 in the assay with HCT-15 was over 100 µM; with ACHN, > 100 µM (inactive); in the assay on SR it was > 100 µM (inactive); with HOP-62, > 100 µM (inactive); with MCF7, > 100 µM (inactive); with SW-620 it was > 100 µM (inactive). Further, the GI50 in the assay on SK-MEL-5, in the assay with MDA-MB-435, in the assay with T47D and with SNB-19 was > 100 µM (inactive) each time.
Consider `CC1=C(/C=C/Cl)CC(Cl)C(C)(Cl)C1` (stereo not given), for which the GI50 was > 100 µM (inactive) with PC-3; 91.2 µM (inactive) with NCI-H522; > 100 µM (inactive) in the assay with EKVX; > 100 µM (inactive) in the assay on Malme-3M; > 100 µM (inactive) in the assay with UACC-62; > 100 µM (inactive) in the assay on BT-549. Moreover, the GI50 was 19.6 µM (inactive) in the assay on CCRF-CEM; > 100 µM (inactive) in the assay on SN12C; over 100 µM in the assay on HCT-15; > 100 µM (inactive) with ACHN; > 100 µM (inactive) in the assay with SR; 40 µM (inactive) in the assay on MCF7. The GI50 with SW-620 was > 100 µM (inactive); in the assay on SK-MEL-5, > 100 µM (inactive); with MDA-MB-435, > 100 µM (inactive); with MOLT-4, 63.5 µM (inactive); in the assay on T47D, > 100 µM (inactive); with SNB-19 it was > 100 µM (inactive).
`O=[N+]([O-])c1cc2no[n+]([O-])c2cc1N1CCCCC1`: the GI50 is 2.16 µM (inactive) with PC-3; 1.48 µM (inactive) with NCI-H522; 2.58 µM (inactive) in the assay with EKVX; 13.4 µM (inactive) in the assay with UACC-62; 9.29 µM (inactive) with BT-549; 0.38 µM (active) in the assay with CCRF-CEM. The GI50 with SN12C is 1.99 µM (inactive); in the assay on HCT-15 it was 3.21 µM; with ACHN, 2.58 µM (inactive); with SR, 2.94 µM (inactive); in the assay on HOP-62, 4.34 µM (inactive); in the assay with MCF7, 1.95 µM (inactive). For the same molecule, the GI50 in the assay on SW-620 is 1.97 µM (inactive); with SK-MEL-5, 15.3 µM (inactive); with MDA-MB-435, 2.87 µM (inactive); with MOLT-4, 1.06 µM (active); with T47D, 1.39 µM (inactive); in the assay with SNB-19, 16.3 µM (inactive).
`O=C(O)C(Cc1c[nH]cn1)N1C(=O)c2ccccc2C1=O` (stereo not given): the GI50 is 18.9 µM (inactive) in the assay on PC-3; > 100 µM (inactive) with NCI-H522; > 100 µM (inactive) in the assay with EKVX; 18.9 µM (inactive) with Malme-3M; > 100 µM (inactive) in the assay with UACC-62; > 100 µM (inactive) with BT-549. The GI50 in the assay on SN12C was > 100 µM (inactive); in the assay on HCT-15 it was over 100 µM; with ACHN, > 100 µM (inactive); with SR it was > 100 µM (inactive); in the assay on HOP-62, 12.9 µM (inactive); in the assay on MCF7, > 100 µM (inactive). Also, the GI50 with SW-620, with SK-MEL-5, with MDA-MB-435, in the assay on MOLT-4, with T47D and with SNB-19 was > 100 µM (inactive) throughout.
In the case of `COc1ccccc1Cn1nc(OC)c2cc([N+](=O)[O-])ccc21`, the GI50 in the assay on PC-3 was > 100 µM (inactive); in the assay on NCI-H522, 17.9 µM (inactive); in the assay on EKVX it was 35.6 µM (inactive); with Malme-3M, > 87.5 µM (inactive); with BT-549 it was 16.9 µM (inactive); with CCRF-CEM it was > 100 µM (inactive). For the same molecule, the GI50 in the assay with SN12C was > 69 µM (inactive); with HCT-15, over 70.1 µM; in the assay on ACHN, 31 µM (inactive); with SR, > 100 µM (inactive); in the assay on HOP-62, 4.48 µM (inactive); with MCF7, 45.8 µM (inactive). For the same molecule, the GI50 in the assay with SW-620 is > 100 µM (inactive); in the assay on SK-MEL-5 it was > 53.7 µM (inactive); in the assay on MDA-MB-435, > 71 µM (inactive); in the assay on MOLT-4, > 100 µM (inactive); with T47D, > 100 µM (inactive); in the assay with SNB-19 it was 11.1 µM (inactive).
With `CC(NC(=O)c1ccc(OP(=O)(OCc2ccc([N+](=O)[O-])o2)N(C)CCCCCl)cc1)c1ccc(OCC2CCCCC2)c(C(N)=O)c1` (stereo not given), the GI50 was 3.44 µM (inactive) with PC-3; 2.38 µM (inactive) with NCI-H522; 14.3 µM (inactive) in the assay on EKVX; 2.52 µM (inactive) in the assay with Malme-3M; 2.29 µM (inactive) in the assay with UACC-62; 2.36 µM (inactive) in the assay with BT-549. In addition, the GI50 in the assay on SN12C was 2.25 µM (inactive); with HCT-15, 2.45 µM; in the assay with ACHN, 3.93 µM (inactive); in the assay with SR, 1.73 µM (inactive); with HOP-62, 7.05 µM (inactive); in the assay on MCF7, 2.77 µM (inactive). Further, the GI50 in the assay with SW-620 was 4.58 µM (inactive); in the assay on SK-MEL-5, 1.66 µM (inactive); in the assay on MDA-MB-435 it was 2.38 µM (inactive); in the assay on MOLT-4 it was 1.38 µM (inactive); with T47D, 2.06 µM (inactive); with SNB-19, 16.4 µM (inactive).
